PMC10254030, “Photoactivatable Heptamethine-Based Carbonic Anhydrase Inhibitors Leading to New Anti-Antibacterial Agents” (International Journal of Molecular Sciences, 2023)
Like-named read-outs stand apart in the source and are kept apart here.

What was measured:
hCA I = target: T1, hCA I (Homo sapiens, UniProt P00915); assay: stopped-flow CO2 hydrase assay, hCA I; format: biochemical; settings: for Ki: stopped-flow CO2 hydrase assay, pH 7.4, mean from 3 assays; for selectivity for all assayed bacterial isoforms: bacterial CA isoforms versus the human off-target hCA I and II
T1 construct: made in house
Method: (§1) The CA isoforms belong to different classes of CA enzymes characterized by different kinetic and structural features to assess isoform selectivity.
(§2) An Applied Photophysics stopped-flow instrument was used to assay CA-catalyzed CO2 hydration activity. […] The uncatalyzed rates were determined in the same manner and subtracted from the total observed rates. Stock solutions of the inhibitor (0.1 mM) were prepared in distilled–deionized water, and dilutions up to 0.01 nM were done thereafter with the assay buffer. Inhibitor and enzyme solutions were preincubated together for 15 min at room temperature prior to the assay to allow for the formation of the E–I complex. The inhibition constants were obtained by non-linear least-squares methods using PRISM 3 and the Cheng–Prusoff equation as reported earlier and represent the mean from at least three different determinations. All CA isoforms were recombinant proteins obtained in house, as reported earlier.

hCA II = target: T2, hCA II (Homo sapiens, UniProt P00918); assay: stopped-flow CO2 hydrase assay, hCA II; format: biochemical; settings: pH 7.4, mean from 3 assays
T2 construct: made in house
Method: as §1, §2

E. coli β = target: T3, E. coli β (Escherichia coli, UniProt P61517); assay: stopped-flow CO2 hydrase assay, E. coli β; format: biochemical; settings: pH 8.4, mean from 3 assays
T3 construct: made in house
Method: as §1
An Applied Photophysics stopped-flow instrument was used to assay CA-catalyzed CO2 hydration activity. Phenol red (at a concentration of 0.2 mM) was used as an indicator, working at the absorbance maximum of 557 nm, with 20 mM Hepes (pH 7.4 for α-class and pH 8.4 for β- and γ-classes) as a buffer and 20 mM Na2SO4 (to maintain constant the ionic strength), following the initial rates of the CA-catalyzed CO2 hydration reaction for a period of 10–100 s. The CO2 concentrations ranged from 1.7 to 17 mM for the determination of the kinetic parameters and inhibition constants. Enzyme concentrations ranged between 5 and 12 nM. For each inhibitor, at least six traces of the initial 5–10% of the reaction were used to determine the initial velocity. The uncatalyzed rates were determined in the same manner and subtracted from the total observed rates. Stock solutions of the inhibitor (0.1 mM) were prepared in distilled–deionized water, and dilutions up to 0.01 nM were done thereafter with the assay buffer. Inhibitor and enzyme solutions were preincubated together for 15 min at room temperature prior to the assay to allow for the formation of the E–I complex. The inhibition constants were obtained by non-linear least-squares methods using PRISM 3 and the Cheng–Prusoff equation as reported earlier and represent the mean from at least three different determinations. All CA isoforms were recombinant proteins obtained in house, as reported earlier.

E. coli γ = E. coli γ (Escherichia coli, UniProt P0A9W9); format: biochemical; settings: stopped-flow CO2 hydrase assay, pH 8.4, mean from 3 assays
Method: as §1, §2

PsCA1 = PsCA1 (Pseudomonas aeruginosa, UniProt Q9I730); assay: biochemical; settings: stopped-flow CO2 hydrase assay, mean from 3 assays
Method: as §1, §2

PsCA3 = target: T4, PsCA3 (Pseudomonas aeruginosa, UniProt Q9HVB9); assay: biochemical; settings: stopped-flow CO2 hydrase assay, mean from 3 assays
T4 construct: made in house
T4 sequence (Q9HVB9 1-215): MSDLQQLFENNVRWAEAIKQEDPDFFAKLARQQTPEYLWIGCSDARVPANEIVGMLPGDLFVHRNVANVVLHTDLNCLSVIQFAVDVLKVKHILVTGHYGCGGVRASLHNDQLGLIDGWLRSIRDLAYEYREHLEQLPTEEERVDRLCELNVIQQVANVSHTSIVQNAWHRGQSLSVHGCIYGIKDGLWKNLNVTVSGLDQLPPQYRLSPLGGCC
Method: as §1, §2

E. faecalis = assay: MIC and MBC test (NF EN ISO 20776-1), E. faecalis; format: cell-based, Enterococcus faecalis; settings: for MIC: Enterococcus faecalis; for MBC E. faecalis: bacteriostatic or bactericidal effect, tested up to 8 × MIC
Method: (§3) Derivatives 2a–f were dissolved in DMSO and further diluted with distilled water to the required final concentration. The microorganisms (E. faecalis, S. aureus, and S. epidermidis reported in Table 4) were cultured overnight at 35 °C in Mueller Hinton Broth 2, Cation-Adjusted (BD, BD 212322, New York, NY, USA) and adjusted to 0.5 McFarland, according to standardized guidelines NF EN ISO 20776-1 [23]. The minimal inhibitory concentration (MIC) test was performed according to the standardized guidelines NF EN ISO 20776-1 [23]. Once the MIC was obtained, the minimal bactericidal concentration (MBC) test was performed.

S. aureus = assay: MIC and MBC test (NF EN ISO 20776-1), S. aureus; format: cell-based, Staphylococcus aureus; settings: for MIC: Staphylococcus aureus, ATCC29213, light or radiation study; for MIC / MIC S. aureus: ATCC 29213, without irradiation; for MBC S. aureus: bacteriostatic or bactericidal effect, tested up to 8 × MIC
Method: as §3

S. epidermidis [1] = assay: MIC and MBC test (NF EN ISO 20776-1), S. epidermidis; format: cell-based, Staphylococcus epidermidis; settings: for MIC: Staphylococcus epidermidis, ATCC14990, light or radiation study; for MIC / MIC S. epidermidis: ATCC 14990, without irradiation
Method: as §3

S. epidermidis [2] = assay: photoactivity assay, irradiation with 652 nm laser; format: cell-based, Staphylococcus epidermidis; settings: 652 nm laser 47 min, 30 J/cm2, 2c and 2d at 64 μg/mL, others at MIC
Method: Upon incubation of 1.5–2 h with the products, the samples were irradiated for 47 min with a 652 nm laser (to obtain 1.70 W, 30 J/cm^2). Upon irradiation, the cells were plated and incubated overnight at 35 °C on Mueller Hinton Agar (BD, 225250, New York, NY, USA).

MRC-5 cells = assay: cytotoxicity, MTT assay; format: cell-based, human; settings: for IC50: MRC5, cytotoxicity, human lung fibroblasts, 24 h, MTT
Method: The cytotoxicity of the products was tested on MRC-5 cells (lung fibroblasts, ATCC CCL-171) with a seeding concentration of 10,000 cells/well. The products were diluted with a 2% FSC MEM medium (Sigma, M4655, Missouri, MO, USA) to concentrations ranging from 1 to 256 μg/mL and incubated with 80% confluent cells for 24 h. The following day, a 3-[4,5-dimethylthiazol-2-yl]-2,5-diphenyl tetrazolium bromide (MTT) assay was performed, and the optical density of the samples was measured at 540 nm.

human red blood cells = assay: hemolysis assay; format: cell-based; settings: 30 min 37 °C; for hemolysis activity, cytotoxicity to human red blood cells: 0.5–150 µg/mL, compared with 0.01% Tween 20
Method: Blood collected at CHU Nancy was washed three times with PBS, and 10^7 cells/mL were incubated for 30 min at 37 °C with the newly synthesized compounds. The derivatives were previously diluted to the range from 0.5 to 75/150 μg/mL with PBS. As a positive control, cells were resuspended with 0.01% polysorbate 20 (Tween 20). Tween 20 has often been used as a reference compound for cell lysis. Upon incubation, the samples were centrifuged for 5 min at 800× g, and the supernatant was collected for optical density reading at 540 nm.

[3] = light or radiation study, clinical isolate, without irradiation, read-out: MIC E. faecalis
[4] = span over the four compounds and both strains, read-out: MIC against the E. faecalis and S. aureus strains
[5] = bacteriostatic or bactericidal effect, tested up to 8 × MIC
[6] = clinical isolate, without irradiation

E. coli γ, sequence (P0A9W9 whole entry): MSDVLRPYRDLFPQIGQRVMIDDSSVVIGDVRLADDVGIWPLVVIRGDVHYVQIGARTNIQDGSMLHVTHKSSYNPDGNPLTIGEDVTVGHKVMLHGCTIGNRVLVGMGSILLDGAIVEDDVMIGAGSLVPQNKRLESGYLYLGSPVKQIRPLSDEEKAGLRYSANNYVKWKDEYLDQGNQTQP
T3 sequence (P61517 whole entry): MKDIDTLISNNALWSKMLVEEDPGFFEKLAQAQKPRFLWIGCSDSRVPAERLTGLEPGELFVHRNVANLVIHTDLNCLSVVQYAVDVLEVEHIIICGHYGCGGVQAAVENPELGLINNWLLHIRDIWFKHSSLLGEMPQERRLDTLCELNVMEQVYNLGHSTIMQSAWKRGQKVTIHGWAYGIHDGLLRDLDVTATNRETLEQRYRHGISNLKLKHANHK
T1 sequence (P00915 whole entry, canonical isoform): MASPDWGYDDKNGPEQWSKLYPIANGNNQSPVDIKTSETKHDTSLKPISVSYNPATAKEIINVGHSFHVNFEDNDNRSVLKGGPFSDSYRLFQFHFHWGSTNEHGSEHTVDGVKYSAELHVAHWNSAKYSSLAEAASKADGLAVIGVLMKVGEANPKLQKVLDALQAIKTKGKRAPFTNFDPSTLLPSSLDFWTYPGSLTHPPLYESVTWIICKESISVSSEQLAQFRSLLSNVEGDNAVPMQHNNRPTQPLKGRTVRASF
PsCA1, sequence (Q9I730 entry or part of it): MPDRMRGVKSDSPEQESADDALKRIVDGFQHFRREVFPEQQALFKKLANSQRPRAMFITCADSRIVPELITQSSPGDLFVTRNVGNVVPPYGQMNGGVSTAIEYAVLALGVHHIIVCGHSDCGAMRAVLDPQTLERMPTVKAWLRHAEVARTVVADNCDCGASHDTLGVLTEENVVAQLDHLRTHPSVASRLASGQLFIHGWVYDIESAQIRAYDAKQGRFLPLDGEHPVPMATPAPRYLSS

Structure (SMILES)	Ki (hCA I) [nM]	Ki (hCA II) [nM]	Ki (E. coli β) [nM]	Ki (E. coli γ) [nM]	Ki (PsCA1) [nM]	Ki (PsCA3) [nM]	MIC (E. faecalis; [3]) [µg/mL]	MIC (E. faecalis; [4]) [µg/mL]	MBC E. faecalis (E. faecalis)	MIC (S. aureus) [µg/mL]	MBC S. aureus (S. aureus)	MIC (S. epidermidis [1]) [µg/mL]	MBC S. epidermidis (S. epidermidis [1]; Table 3)	MBC S. epidermidis (S. epidermidis [1]; [5])	Growth Reduction (S. epidermidis [2]) [log reduction]	IC50 (MRC-5 cells) [µg/mL]	hemolysis activity, cytotoxicity to human red blood cells (human red blood cells)	selectivity for all assayed bacterial isoforms (hCA I) [fold]	MIC E. faecalis (E. faecalis; [6])	MIC S. aureus (S. aureus)	further results
CCCN1C(=CC=C2CCCC(C=CC3=[N+](CCC)c4ccccc4C3(C)C)=C2NCCc2ccc(S(N)(=O)=O)cc2)C(C)(C)c2ccccc21 [Compound 2a]	410	163	54.8	120	60.4	89.4	16 to 64	8 to 128	bactericidal	8 to 32	bacteriostatic	4 to 16	bactericidal	bactericidal	1	38.5	not cytotoxic	–	–	–	fold less toxic than 2e (MRC-5 cells; MRC-5 IC50 compared with 2e): 19 fold
CCCN1C(=CC=C2CCCC(C=CC3=[N+](CCC)c4ccccc4C3(C)C)=C2NCCNC(=O)Nc2ccc(S(N)(=O)=O)cc2)C(C)(C)c2ccccc21 [Compound 2b]	957	588	69.4	93.5	46.9	48.1	16 to 64	8 to 128	bacteriostatic	8 to 32	bacteriostatic	4 to 16	bacteriostatic	bacteriostatic	2	82.2	significant cytotoxicity	~10	–	–	concentration above which cytotoxic to human red blood cells (human red blood cells; hemolysis assay): > 75 µg/mL
CC1(C)C(/C=C/C2=C(NCCc3ccc(S(N)(=O)=O)cc3)C(=C/C=C3\N(CCCCS(=O)(=O)O)c4ccc5ccccc5c4C3(C)C)/CCC2)=[N+](CCCCS(=O)(=O)[O-])c2ccc3ccccc3c21 [Compound 2c]	529	91	60.2	117	64.8	76.8	> 256	–	> 256 µg/mL	> 256	> 256 µg/mL	> 256	> 256 µg/mL	> 256 µg/mL	1	> 256	significant cytotoxicity	–	over 256 µg/mL	over 256 µg/mL	MIC S. epidermidis (S. epidermidis [1]): over 256 µg/mL
CC1(C)C(/C=C/C2=C(NCCNC(=O)Nc3ccc(S(N)(=O)=O)cc3)C(=C/C=C3\N(CCCCS(=O)(=O)O)c4ccc5ccccc5c4C3(C)C)/CCC2)=[N+](CCCCS(=O)(=O)[O-])c2ccc3ccccc3c21 [Compound 2d]	923	183	69.8	111	88.7	81	> 256	–	> 256 µg/mL	> 256	> 256 µg/mL	> 256	> 256 µg/mL	> 256 µg/mL	1	> 256	significant cytotoxicity	–	over 256 µg/mL	over 256 µg/mL	MIC S. epidermidis (S. epidermidis [1]): over 256 µg/mL
CN1C(=CC=C2CCCC(C=CC3=[N+](C)c4ccc5ccccc5c4C3(C)C)=C2NCCc2ccc(S(N)(=O)=O)cc2)C(C)(C)c2c1ccc1ccccc21 [Compound 2e]	861	160	74.1	110	71.1	77.7	16 to 64	8 to 128	bactericidal	8 to 32	bactericidal	1 to 4	bactericidal	bactericidal	–	2	not cytotoxic	–	–	–	–
CN1C(=CC=C2CCCC(C=CC3=[N+](C)c4ccc5ccccc5c4C3(C)C)=C2NCCNC(=O)Nc2ccc(S(N)(=O)=O)cc2)C(C)(C)c2c1ccc1ccccc21 [Compound 2f]	3900	625	64.9	124	58.3	94.5	32 to 128	8 to 128	bactericidal	16 to 64	bacteriostatic	2 to 8	bacteriostatic	bacteriostatic	1	78.8	not cytotoxic	~10	–	–	selectivity index (SI) against S. epidermidis (S. epidermidis [1]; ratio between cytotoxicity in μg/mL and the MIC value in μg/mL): highest SI
